Results: patent US12171230B2, “Herbicidal compositions” (Bayer Aktiengesellschaft, priority 2018, dated 2024)

What was measured:
Type in all cases: in vivo
Bidens pilosa = experiment: Post-emergence herbicidal action against Bidens pilosa
Procedure: (§1) When the observed efficacies exceed the formal sum total of the values of the tests with individual applications, they also exceed the expected value according to Colby, which is calculated using the formula below and is likewise regarded as an indication of synergism (cf. S. R. Colby; in Weeds 15 (1967) p. 20 to 22): E^C=A+B−([…])
(§2) Here: • A=efficacy of the active compound (A) in % at an application rate of a g a.i./ha; • B=efficacy of the active compound (B) in % at an application rate of b g a.i./ha; • E^C=expected value of the effect of the combination (A)+(B) in % at the combined application rate a+b g a.i./ha.
(§3) Seeds or rhizome pieces of mono- and dicotyledonous weeds are placed in sandy loam in pots, covered with soil and grown in a greenhouse under good growth conditions (temperature, air humidity, water supply). Three weeks after sowing, the test plants were treated at the three-leaf stage with the compositions according to the invention. The compositions according to the invention formulated as spray powders or as emulsion concentrates were sprayed onto the green plant parts in various dosages with an application rate of 300 to 800 l/ha of water (equivalent). After the test plants have been left to stand in the greenhouse under optimal growth conditions for about 3 to 4 weeks, the action of the preparations is scored visually in comparison to untreated controls. The compositions according to the invention also have good post-emergence herbicidal activity against a broad spectrum of economically important gramineous and broadleaf weeds.

Digitaria sanguinalis = experiment: Post-emergence herbicidal action against Digitaria sanguinalis; conditions: for Herbicidal action: 21 DAT
Procedure: as §1, §2, §3

Centaurea cyano = experiment: Post-emergence herbicidal action against Centaurea cyano
Procedure: Seeds or rhizome pieces of mono- and dicotyledonous weeds are placed in sandy loam in pots, covered with soil and grown in a greenhouse under good growth conditions (temperature, air humidity, water supply). Three weeks after sowing, the test plants were treated at the three-leaf stage with the compositions according to the invention. The compositions according to the invention formulated as spray powders or as emulsion concentrates were sprayed onto the green plant parts in various dosages with an application rate of 300 to 800 l/ha of water (equivalent).

Poa annua = experiment: Post-emergence herbicidal action against Poa annua; conditions: for Herbicidal action in [%] 28 DAT against Poa annua: post-emergence
Procedure: as §1, §2, §3

Matricaria inodora = experiment: Post-emergence herbicidal action against Matricaria inodora
Galium aparine = experiment: Post-emergence herbicidal action against Galium aparine; conditions: for Herbicidal action in [%] 28 DAT against Galium aparine: post-emergence
Procedure: as §1, §2, §3

Amaranthus palmeri = experiment: Post-emergence herbicidal action against Amaranthus palmeri; conditions: Amaranthus palmeri, post-emergence, 504 h
Procedure: as §1, §2, §3

Phalaris minor [1] = experiment: Post-emergence herbicidal action against Phalaris minor; conditions: 15 g of a.i./ha
Description: (§4) The following abbreviations are used in the description and the tables that follow: • g of a.i./ha=grams of active substance (active ingredient) (=100% active compound) per hectare; • The sum total of the effects of the individual applications is reported under E^A; • expected values according to Colby are each reported under E^C.
(§5) The rating period is reported in days after application (DAT).

Alopecurus myosuroides [2] = experiment: Post-emergence herbicidal action against Alopecurus myosuroides; conditions: 1.7 g of a.i./ha
Description: as §4, §5

[3] = tested on: Lolium rigidum (resistant biotype); experiment: Post-emergence herbicidal action against Lolium rigidum (resistant biotype)
Description: as §4, §5

Bromus sterilis = experiment: Post-emergence herbicidal action against Bromus sterilis
[4] = tested on: Lolium rigidum (resistant biotype); experiment: Post-emergence herbicidal action against Lolium rigidum (resistant biotype); remark: listed apart in the source
Alopecurus myosuroides [5] = experiment: Post-emergence herbicidal action against Alopecurus myosuroides
Lolium rigidum = experiment: Post-emergence herbicidal action against Lolium rigidum
Phalaris minor [6] = experiment: Post-emergence herbicidal action against Phalaris minor

COCc1cnc(C2=NC(C)(C(C)C)C(=O)N2)c(C(=O)O)c1 (stereo not shown) [(B4.11) Imazamox]
Herbicidal action 21 DAT [%] against Bidens pilosa (Bidens pilosa; 3.3 g of a.i./ha): 20%
Herbicidal action 21 DAT [%] against Bidens pilosa (Bidens pilosa; 30 g of a.i./ha): 50%
Herbicidal action 21 DAT [%] against Digitaria sanguinalis (Digitaria sanguinalis; 3.3 g of a.i./ha): 60%

CCOC(=O)COc1ncccc1Oc1cc(-n2c(=O)cc(C(F)(F)F)n(C)c2=O)c(F)cc1Cl [(B9.14), ethyl [3-[2-chloro-4-fluoro-5-(1-methyl-6-trifluoromethyl-2,4-dioxo-1,2,3,4-tetrahydropyrimidin-3-yl)phenoxy]-2-pyridyloxy]acetate, reference compound]
Herbicidal action in [%] 28 DAT against Centaurea cyano (Centaurea cyano; 2.5 g of a.i./ha, post-emergence): 90%
Herbicidal action in [%] 28 DAT against Poa annua (Poa annua; 5 g of a.i./ha): 80%
Herbicidal action in [%] 28 DAT against Poa annua (Poa annua; 10 g of a.i./ha): 60%
Herbicidal action in [%] 28 DAT against Matricaria inodora (Matricaria inodora; 10 g of a.i./ha, post-emergence): 98%
Herbicidal action in [%] 28 DAT against Galium aparine (Galium aparine; 5 g of a.i./ha): 90%
Herbicidal action in [%] 28 DAT against Galium aparine (Galium aparine; 10 g of a.i./ha): 90%

CC(C)N.O=C(O)CNCP(=O)(O)O [(CAS 38641-94-0)]
Herbicidal action (Galium aparine; 28 DAT, 150 g a.i./ha): 40%

CCc1cnc(C2=NC(C)(C(C)C)C(=O)N2)c(C(=O)O)c1 (stereo not shown) [(B4.15) Imazethapyr]
Herbicidal action 21 DAT [%] against Bidens pilosa (Bidens pilosa; 3.33 g of a.i./ha): 0%
Herbicidal action 21 DAT [%] against Bidens pilosa (Bidens pilosa; 10 g of a.i./ha): 0%
Herbicidal action 21 DAT [%] against Bidens pilosa (Bidens pilosa; 30 g of a.i./ha): 25%
pest or weed control at 3.33 g/ha (Amaranthus palmeri; 3.33 g of a.i./ha, read-out: Herbicidal action 21 DAT [%] against Amaranthus palmeri): 0%
pest or weed control at 10 g/ha (Amaranthus palmeri; 10 g of a.i./ha, read-out: Herbicidal action 21 DAT [%] against Amaranthus palmeri): 0%
pest or weed control at 30 g/ha (Amaranthus palmeri; 30 g of a.i./ha, read-out: Herbicidal action 21 DAT [%] against Amaranthus palmeri): 10%

COc1cc(OC)nc(NC(=O)NS(=O)(=O)c2cc(CNS(C)(=O)=O)ccc2C(=O)O)n1 [(B2.37) Mesosulfuron]
Herbicidal action 28 DAT against Centaurea cyanus (Centaurea cyano; 5 g of a.i./ha): 60%
Herbicidal action 28 DAT against Phalaris minor (Phalaris minor [1]): 85%
Herbicidal action 28 DAT against Alopecurus myosuroides (Alopecurus myosuroides [2]): 75%
Herbicidal action 14 DAT against Lolium rigidum (resistant biotype) ([3]; 1.7 g of a.i./ha): 20%
Herbicidal action 28 DAT against Lolium rigidum (resistant biotype) ([3]; 1.7 g of a.i./ha): 0%
Herbicidal action 14 DAT against Lolium rigidum (resistant biotype) ([3]; 5 g of a.i./ha): 30%
Herbicidal action 28 DAT against Lolium rigidum (resistant biotype) ([3]; 5 g of a.i./ha): 0%
Herbicidal action 14 DAT against Lolium rigidum (resistant biotype) ([3]; 15 g of a.i./ha): 30%
Herbicidal action 28 DAT against Lolium rigidum (resistant biotype) ([3]; 15 g of a.i./ha): 20%
Herbicidal action 14 DAT against Matricaria inodora (Matricaria inodora; 15 g of a.i./ha): 75%
Herbicidal action 28 DAT against Matricaria inodora (Matricaria inodora; 15 g of a.i./ha): 65%

C#CCN1C(=O)COc2cc(F)c(N3C(=O)C4=C(CCCC4)C3=O)cc21 [(B5.26) Flumioxazin]
pest or weed control at 1.33 g/ha (Amaranthus palmeri; 21 DAT, 1.33 g of a.i./ha): 0%
pest or weed control at 4 g/ha (Amaranthus palmeri; 21 DAT, 4 g of a.i./ha): 0%
pest or weed control at 12 g/ha (Amaranthus palmeri; 21 DAT, 12 g of a.i./ha): 10%

Cc1nn(C)c(O)c1C(=O)c1ccc(C(F)(F)F)cc1S(C)(=O)=O [(B4.22) Pyrasulfotole]
Herbicidal action in [%] 28 DAT against Centaurea cyanus (Centaurea cyano; 5 g of a.i./ha): 0%
Herbicidal action in [%] 14 DAT against Centaurea cyanus (Centaurea cyano; 15 g of a.i./ha): 10%
Herbicidal action in [%] 28 DAT against Centaurea cyanus (Centaurea cyano; 15 g of a.i./ha): 0%
Herbicidal action in [%] 14 DAT against Centaurea cyanus (Centaurea cyano; 45 g of a.i./ha): 30%
Herbicidal action in [%] 28 DAT against Centaurea cyanus (Centaurea cyano; 45 g of a.i./ha): 20%
Herbicidal action in [%] 14 DAT against Bromus sterilis (Bromus sterilis; 5 g of a.i./ha): 0%
Herbicidal action in [%] 14 DAT against Bromus sterilis (Bromus sterilis; 15 g of a.i./ha): 0%
Herbicidal action in [%] 14 DAT against Bromus sterilis (Bromus sterilis; 45 g of a.i./ha): 10%
Herbicidal action in [%] 14 DAT against Lolium rigidum (resistant biotype) ([4]; 5 g of a.i./ha): 5%
Herbicidal action in [%] 28 DAT against Lolium rigidum (resistant biotype) ([4]; 5 g of a.i./ha): 0%
Herbicidal action in [%] 14 DAT against Lolium rigidum (resistant biotype) ([4]; 15 g of a.i./ha): 5%
Herbicidal action in [%] 28 DAT against Lolium rigidum (resistant biotype) ([4]; 15 g of a.i./ha): 0%
Herbicidal action in [%] 14 DAT against Lolium rigidum (resistant biotype) ([4]; 45 g of a.i./ha): 10%
Herbicidal action in [%] 14 DAT against Poa annua L. (Poa annua; 5 g of a.i./ha): 0%
Herbicidal action in [%] 28 DAT against Poa annua L. (Poa annua; 5 g of a.i./ha): 0%
Herbicidal action in [%] 14 DAT against Poa annua L. (Poa annua; 15 g of a.i./ha): 0%
Herbicidal action in [%] 28 DAT against Poa annua L. (Poa annua; 15 g of a.i./ha): 0%
Herbicidal action in [%] 14 DAT against Poa annua L. (Poa annua; 45 g of a.i./ha): 0%
Herbicidal action in [%] 28 DAT against Poa annua L. (Poa annua; 45 g of a.i./ha): 0%
Herbicidal action in [%] 14 DAT against Alopecurus myosuroides (Alopecurus myosuroides [5]; 5 g of a.i./ha): 0%
Herbicidal action in [%] 28 DAT against Alopecurus myosuroides (Alopecurus myosuroides [5]; 5 g of a.i./ha): 0%
Herbicidal action in [%] 14 DAT against Alopecurus myosuroides (Alopecurus myosuroides [5]; 15 g of a.i./ha): 0%
Herbicidal action in [%] 28 DAT against Alopecurus myosuroides (Alopecurus myosuroides [5]; 15 g of a.i./ha): 0%
Herbicidal action in [%] 14 DAT against Alopecurus myosuroides (Alopecurus myosuroides [5]; 45 g of a.i./ha): 10%
Herbicidal action in [%] 28 DAT against Alopecurus myosuroides (Alopecurus myosuroides [5]; 45 g of a.i./ha): 10%
Herbicidal action in [%] 14 DAT against Lolium rigidum (Lolium rigidum; 5 g of a.i./ha): 0%
Herbicidal action in [%] 28 DAT against Lolium rigidum (Lolium rigidum; 5 g of a.i./ha): 0%
Herbicidal action in [%] 14 DAT against Lolium rigidum (Lolium rigidum; 15 g of a.i./ha): 5%
Herbicidal action in [%] 28 DAT against Lolium rigidum (Lolium rigidum; 15 g of a.i./ha): 0%
Herbicidal action in [%] 14 DAT against Lolium rigidum (Lolium rigidum; 45 g of a.i./ha): 5%
Herbicidal action in [%] 28 DAT against Lolium rigidum (Lolium rigidum; 45 g of a.i./ha): 10%
Herbicidal action in [%] 14 DAT against Matricaria inodora (Matricaria inodora; 5 g of a.i./ha): 20%
Herbicidal action in [%] 28 DAT against Matricaria inodora (Matricaria inodora; 5 g of a.i./ha): 10%
Herbicidal action in [%] 14 DAT against Phalaris minor (Phalaris minor [6]; 5 g of a.i./ha): 0%
Herbicidal action in [%] 28 DAT against Phalaris minor (Phalaris minor [6]; 5 g of a.i./ha): 0%
Herbicidal action in [%] 14 DAT against Phalaris minor (Phalaris minor [6]; 15 g of a.i./ha): 0%
Herbicidal action in [%] 28 DAT against Phalaris minor (Phalaris minor [6]; 15 g of a.i./ha): 0%

CP(=O)(O)CCC(N)C(=O)O (racemic) [(B7.4) Glufosinate-]
Herbicidal action (Bidens pilosa; 21 DAT, 360 g a.i./ha): 70%
Herbicidal action (Digitaria sanguinalis; 40 g a.i./ha): 10%
Herbicidal action (Digitaria sanguinalis; 120 g a.i./ha): 30%
